Assay results as given in the supplement of paper PMC10307832.

What was measured:
Assay in all cases: relative viability (nuclei count vs DMSO), 5 days (fraction); higher = more cells survive
[1] = compound: C1/C(=C\C2=CC=CS2)/C(=O)/C(=C/C3=CC=CS3)/C1 + CC(=O)Nc1cccc(-n2c(=O)n(C3CC3)c(=O)c3c(Nc4ccc(I)cc4F)n(C)c(=O)c(C)c32)c1 [Trametinib] (partner 0.02 µM)
In short: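 Cells from lung cancer lines were seeded into 1536-well plates and, one day later, dosed by pin tool. Treatments were either a single drug or a fixed dose of an anchor drug with five library-drug doses (not always all listed) in √10 steps. After 5 days, nuclei were stained in a one-step fixation (final 0.05% Triton X-100, 1% formaldehyde, 1 ug/ml Hoechst) and counted on 4× images, and relative viability is the treated-to-vehicle nuclei ratio, as the median of duplicate plates.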

[2] = compound: C1/C(=C\C2=CC=CS2)/C(=O)/C(=C/C3=CC=CS3)/C1
In short: (§1)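 Lung cancer cell lines were seeded into 1536-well plates, kept overnight at 37 °C and pinned with five library-drug doses (not always all listed) spaced by √10. After 5 days, nuclei were Hoechst-stained, imaged at 4× and counted with MetaXpress. Viability is treated-well nuclei over vehicle-well nuclei, taken as a median across plates. Plates needed control CV below 25% and at least one doubling.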

Lestaurtinib = compound: C[C@]12O[C@H](C[C@]1(O)CO)n1c3ccccc3c3c4c(c5c6ccccc6n2c5c31)CNC4=O [Lestaurtinib]
In short: as §1

TPCA-1 = compound: C1=CC(=CC=C1C2=CC(=C(S2)NC(=O)N)C(=O)N)F [TPCA-1]
In short: as §1

Cell Line	relative viability ([1]; first compound 0.2 µM)	relative viability ([1]; first compound 0.6325 µM)	relative viability ([1]; first compound 2 µM)	relative viability ([1]; first compound 6.325 µM)	relative viability ([1]; first compound 20 µM)	relative viability ([2]; 0.2 µM)	relative viability ([2]; 0.6325 µM)	relative viability ([2]; 2 µM)	relative viability ([2]; 6.325 µM)	relative viability ([2]; 20 µM)	relative viability (Lestaurtinib; 0.005 µM)	relative viability (Lestaurtinib; 0.01581 µM)	relative viability (Lestaurtinib; 0.05 µM)	relative viability (Lestaurtinib; 0.1581 µM)	relative viability (Lestaurtinib; 0.5 µM)	relative viability (TPCA-1; 0.04 µM)	relative viability (TPCA-1; 0.1265 µM)	relative viability (TPCA-1; 0.4 µM)	relative viability (TPCA-1; 1.265 µM)	relative viability (TPCA-1; 4 µM)
NCI-H838	0.491	0.516	0.488	0.448	0.44	0.97	0.981	1.04	0.79	0.904	1	0.986	0.811	0.58	0.193	1.04	0.863	0.967	0.755	0.739
NCI-H1666	0.855	0.86	0.791	0.861	0.77	1.02	1.02	0.922	0.919	0.955	1.11	1.13	1.31	0.986	0.894	1.09	0.972	0.982	0.973	0.904
NCI-H1944	0.393	0.421	0.424		0.388	1.04	0.922	0.977	0.858	0.917	0.888	0.972	0.968	0.655	0.396	1.15	0.88	1.07	0.998	0.715
NCI-H2023	0.629	0.546	0.684	0.511	0.555	1	1.04	1.07	0.827	0.837	1.02	0.978	0.874	0.746	0.201	1.16	0.946	1.13	0.85	0.509
NCI-H1755	0.75	0.768	0.794	0.627	0.714	1.02	0.987	1.04	0.807	0.999	1.02	1.05	0.965	0.736	0.351	0.951	0.941	1.01	0.922	0.765
NCI-H23	0.411	0.406	0.4	0.369	0.365	1.13	1.21	1.11	0.798	0.962	0.999	1.1	0.817	0.594	0.378	1.1	0.846	0.956	0.782	0.231
201T	0.708	0.704	0.736	0.708	0.706	1.01	0.963	1.06	0.935	0.935	1.04	1.08	0.928	1.04	0.678	1.02	0.951	1	1.01	0.835
NCI-H1734	0.825	0.575	0.658	0.578	0.626	1.02	1.01	1.03	0.891	0.984	0.993	0.956	0.66	0.563	0.262	1.17	0.848	1.1	1.03	0.553
NCI-H520	0.629	0.789	0.665		0.677	1.04	1.13	1.12	0.969	0.886	1.13	1.07	0.789	0.524	0.292	1.16	0.835	0.941	1.1	0.371
NCI-H1650	0.619	0.679	0.548	0.627	0.516	0.874	0.908	1.01	0.867	0.875	0.976	1.09	0.961	1.19	0.415	1.03	0.851	1.06	0.955	0.852
NCI-H1355	0.42	0.43	0.457	0.341	0.407	1	0.967	0.995	0.833	0.963	1.07	1.01	0.777	0.582	0.508	1.09	0.89	0.94	0.859	0.751
NCI-H1915	0.311	0.309	0.315	0.262	0.322	1.02	1.04	0.99	0.93	0.97	1.01	1.05	0.927	0.642	0.344	1.1	0.984	1.05	0.896	0.608
BEN	1.01	1.11	1.04	1.05	0.977	0.935	1	1.11	0.848	0.934	0.993	1.11	0.888	0.8	0.278	1.01	0.873	1.05	1.08	0.774
NCI-H3122	0.25	0.222	0.226	0.233	0.251	1.03	0.986	1.05	0.892	0.975	1.06	1.11	0.981	1.11	0.615	1.04	0.924	1	1.01	0.991
SK-MES-1	0.601	0.58	0.549	0.502	0.568	1.05	1.03	1.02	0.906	0.972	1.02	0.931	0.57	0.394	0.259	1.06	0.864	0.976	0.881	0.604
HOP-62	0.346	0.457	0.377	0.381	0.391	1.1	1.02	1.01	0.928	1.01	1.02	1.11	0.921	1.12	0.452	1.02	0.97	0.956	0.943	0.852
